Test results as given in the supplement of paper PMC10307832.

Columns and labels:
Experiment in all cases: relative viability (nuclei count vs DMSO), 5 days (fraction); higher = more cells survive
NCI-H838 = system: NCI-H838
Outline: (§1)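 Lung cancer cell lines in 1536-well plates were dosed by pin tool the day after seeding, either with one drug alone or with a fixed anchor-drug dose plus five library-drug doses (not always all listed) in √10 steps. After 5 days, cells were fixed and their nuclei stained in one step (final 0.05% Triton X-100, 1% formaldehyde, 1 ug/ml Hoechst), then counted on 4× images. Relative viability is the nuclei count in treated wells divided by that in vehicle wells. Values are medians of duplicate plates.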

NCI-H23 = system: NCI-H23
Outline: as §1

NCI-H1993 = system: NCI-H1993
Outline: as §1

SK-LU-1 = system: SK-LU-1
Outline: as §1

NCI-H1793 = system: NCI-H1793
Outline: as §1

NCI-H2126 = system: NCI-H2126
Outline: as §1

NCI-H2405 = system: NCI-H2405
Outline: as §1

NCI-H2023 = system: NCI-H2023
Outline: as §1

NCI-H2228 = system: NCI-H2228
Outline: as §1

ChaGo-K-1 = system: ChaGo-K-1
Outline: as §1

A-427 = system: A-427
Outline: as §1

ABC-1 = system: ABC-1
Outline: as §1

UMC-11 = system: UMC-11
Outline: as §1

NCI-H1944 = system: NCI-H1944
Outline: as §1

NCI-H2009 = system: NCI-H2009
Outline: as §1

COR-L23 = system: COR-L23
Outline: as §1

LC-2-ad = system: LC-2-ad
Outline: as §1

EMC-BAC-2 = system: EMC-BAC-2
Outline: as §1

HCC-15 = system: HCC-15
Outline: as §1

NCI-H1734 = system: NCI-H1734
Outline: as §1

HCC-366 = system: HCC-366
Outline: as §1

HCC-78 = system: HCC-78
Outline: as §1

HARA = system: HARA
Outline: as §1

## O=C(O)c1ccc(-c2c[nH]c3ncc(-c4ccccc4)cc23)cc1C1CCCC1 + O=C(c1cc(Cc2n[nH]c(=O)c3ccccc23)ccc1F)N1CCN(C(=O)C2CC2)CC1 [Olaparib] (partner 8 µM)
NCI-H838; first compound 0.04 µM
  relative viability: 0.76
NCI-H838; first compound 0.1265 µM
  relative viability: 0.858
NCI-H838; first compound 0.4 µM
  relative viability: 0.732
NCI-H838; first compound 1.265 µM
  relative viability: 0.468
NCI-H23; first compound 0.04 µM
  relative viability: 0.34
NCI-H23; first compound 0.1265 µM
  relative viability: 0.33
NCI-H23; first compound 0.4 µM
  relative viability: 0.289
NCI-H23; first compound 1.265 µM
  relative viability: 0.271
NCI-H1993; first compound 0.04 µM
  relative viability: 0.902
NCI-H1993; first compound 0.1265 µM
  relative viability: 1.19
NCI-H1993; first compound 0.4 µM
  relative viability: 1.04
NCI-H1993; first compound 1.265 µM
  relative viability: 0.974
SK-LU-1; first compound 0.04 µM
  relative viability: 0.457
SK-LU-1; first compound 0.1265 µM
  relative viability: 0.459
SK-LU-1; first compound 0.4 µM
  relative viability: 0.512
SK-LU-1; first compound 1.265 µM
  relative viability: 0.318
NCI-H1793; first compound 0.04 µM
  relative viability: 0.878
NCI-H1793; first compound 0.1265 µM
  relative viability: 1.03
NCI-H1793; first compound 0.4 µM
  relative viability: 0.963
NCI-H1793; first compound 1.265 µM
  relative viability: 0.512
NCI-H2126; first compound 0.04 µM
  relative viability: 0.884
NCI-H2126; first compound 0.1265 µM
  relative viability: 0.861
NCI-H2126; first compound 0.4 µM
  relative viability: 0.853
NCI-H2126; first compound 1.265 µM
  relative viability: 0.64
NCI-H2405; first compound 0.04 µM
  relative viability: 0.823
NCI-H2405; first compound 0.1265 µM
  relative viability: 0.951
NCI-H2405; first compound 0.4 µM
  relative viability: 0.778
NCI-H2405; first compound 1.265 µM
  relative viability: 0.584
NCI-H2023; first compound 0.04 µM
  relative viability: 0.475
NCI-H2023; first compound 0.1265 µM
  relative viability: 0.485
NCI-H2023; first compound 0.4 µM
  relative viability: 0.408
NCI-H2023; first compound 1.265 µM
  relative viability: 0.238
NCI-H2228; first compound 0.04 µM
  relative viability: 0.728
NCI-H2228; first compound 0.1265 µM
  relative viability: 0.645
NCI-H2228; first compound 0.4 µM
  relative viability: 0.626
NCI-H2228; first compound 1.265 µM
  relative viability: 0.309
ChaGo-K-1; first compound 0.04 µM
  relative viability: 0.418
ChaGo-K-1; first compound 0.1265 µM
  relative viability: 0.429
ChaGo-K-1; first compound 0.4 µM
  relative viability: 0.401
ChaGo-K-1; first compound 1.265 µM
  relative viability: 0.314
A-427; first compound 0.04 µM
  relative viability: 0.706
A-427; first compound 0.1265 µM
  relative viability: 0.845
A-427; first compound 0.4 µM
  relative viability: 0.644
A-427; first compound 1.265 µM
  relative viability: 0.573
ABC-1; first compound 0.04 µM
  relative viability: 1.03
ABC-1; first compound 0.1265 µM
  relative viability: 0.726
ABC-1; first compound 0.4 µM
  relative viability: 0.611
ABC-1; first compound 1.265 µM
  relative viability: 1.1
UMC-11; first compound 0.04 µM
  relative viability: 0.366
UMC-11; first compound 0.1265 µM
  relative viability: 0.307
UMC-11; first compound 0.4 µM
  relative viability: 0.825
UMC-11; first compound 1.265 µM
  relative viability: 0.398
NCI-H1944; first compound 0.04 µM
  relative viability: 0.421
NCI-H1944; first compound 0.1265 µM
  relative viability: 0.444
NCI-H1944; first compound 0.4 µM
  relative viability: 0.412
NCI-H1944; first compound 1.265 µM
  relative viability: 0.36
NCI-H2009; first compound 0.04 µM
  relative viability: 0.679
NCI-H2009; first compound 0.1265 µM
  relative viability: 0.708
NCI-H2009; first compound 0.4 µM
  relative viability: 0.653
NCI-H2009; first compound 1.265 µM
  relative viability: 0.568
COR-L23; first compound 0.04 µM
  relative viability: 0.311
COR-L23; first compound 0.1265 µM
  relative viability: 0.353
COR-L23; first compound 0.4 µM
  relative viability: 0.279
COR-L23; first compound 1.265 µM
  relative viability: 0.258
LC-2-ad; first compound 0.04 µM
  relative viability: 0.651
LC-2-ad; first compound 0.1265 µM
  relative viability: 0.642
LC-2-ad; first compound 0.4 µM
  relative viability: 0.623
LC-2-ad; first compound 1.265 µM
  relative viability: 0.566
EMC-BAC-2; first compound 0.04 µM
  relative viability: 0.453
EMC-BAC-2; first compound 0.1265 µM
  relative viability: 0.506
EMC-BAC-2; first compound 0.4 µM
  relative viability: 0.429
EMC-BAC-2; first compound 1.265 µM
  relative viability: 0.368
HCC-15; first compound 0.04 µM
  relative viability: 0.747
HCC-15; first compound 0.1265 µM
  relative viability: 0.671
HCC-15; first compound 0.4 µM
  relative viability: 0.56
HCC-15; first compound 1.265 µM
  relative viability: 0.377
NCI-H1734; first compound 0.04 µM
  relative viability: 0.562
NCI-H1734; first compound 0.1265 µM
  relative viability: 0.736
NCI-H1734; first compound 0.4 µM
  relative viability: 0.568
NCI-H1734; first compound 1.265 µM
  relative viability: 0.495
HCC-366; first compound 0.04 µM
  relative viability: 0.362
HCC-366; first compound 0.1265 µM
  relative viability: 0.419
HCC-366; first compound 0.4 µM
  relative viability: 0.422
HCC-366; first compound 1.265 µM
  relative viability: 0.376
HCC-78; first compound 0.1265 µM
  relative viability: 0.814
HCC-78; first compound 0.4 µM
  relative viability: 0.784
HCC-78; first compound 1.265 µM
  relative viability: 0.71
HARA; first compound 0.04 µM
  relative viability: 0.878
HARA; first compound 0.1265 µM
  relative viability: 0.678
HARA; first compound 0.4 µM
  relative viability: 0.886
HARA; first compound 1.265 µM
  relative viability: 0.329
